Measured values published in BigSolDB 2.1.

c1ccc2c(c1)sc1ccccc12
solubility (mole fraction)
Conditions | in acetonitrile | in ethanol | in formic acid | in isopropanol | in methanol | in n-butanol
278.15 K | 0.00454 | 0.00347 | 0.000475 | 0.00245 | 0.00126 | 0.00485
283.15 K | 0.00611 | 0.00433 | 0.000578 | 0.00347 | 0.00163 | 0.00621
288.15 K | 0.00845 | 0.00529 | 0.000668 | 0.00436 | 0.00192 | 0.00788
293.15 K | 0.0128 | 0.00619 | 0.000756 | 0.00577 | 0.00242 | 0.00999
298.15 K | 0.0157 | 0.0075 | 0.000881 | 0.00703 | 0.0029 | 0.0132
303.15 K | 0.0189 | 0.00919 | 0.000995 | 0.00874 | 0.00331 | 0.016
308.15 K | 0.0241 | 0.0105 | 0.00112 | 0.0111 | 0.00406 | 0.0192
313.15 K | 0.0321 | 0.0127 | 0.00126 | 0.0136 | 0.00478 | 0.0242
318.15 K | 0.0402 | 0.0148 | 0.0014 | 0.0162 | 0.00573 | 0.0303
323.15 K | 0.0506 | 0.0174 | 0.00157 | 0.0202 | 0.00668 | 0.0381
328.15 K | 0.0639 | 0.0206 | 0.00177 | 0.0249 | 0.00795 | 0.0458
